Here are results for one compound from article PMC9339071, “Toward in vivo proof of binding of ^18F-labeled inhibitor [^18F]TRACK to peripheral tropomyosin receptor kinases” (EJNMMI Research, 2022).

The structures appear in SMILES notation.

In the experiment the target is T1, TrkA (tropomyosin 3-TrkA fusion protein, TPM3-NTRK1) (Homo sapiens, UniProt P04629).
T1 construct: tropomyosin 3-TrkA fusion protein (TPM3-NTRK1), endogenous in KM12 cells
The experiment in a line: competition with [18F]TRACK radiotracer uptake in intact KM12 cells. The format is cell-based.

T1 sequence (P04629 405-796 limits assumed): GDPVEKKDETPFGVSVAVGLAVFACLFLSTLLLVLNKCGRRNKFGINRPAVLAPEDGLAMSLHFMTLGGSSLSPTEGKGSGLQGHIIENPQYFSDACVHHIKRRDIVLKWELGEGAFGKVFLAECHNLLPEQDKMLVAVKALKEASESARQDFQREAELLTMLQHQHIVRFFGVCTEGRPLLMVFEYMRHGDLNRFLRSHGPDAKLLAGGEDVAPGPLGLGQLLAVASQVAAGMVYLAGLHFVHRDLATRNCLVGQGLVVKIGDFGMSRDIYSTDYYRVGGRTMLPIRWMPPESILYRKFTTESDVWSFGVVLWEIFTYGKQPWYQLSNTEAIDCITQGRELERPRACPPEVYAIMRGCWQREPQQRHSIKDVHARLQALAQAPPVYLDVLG
T1 sequence (P06753 2-285 partner): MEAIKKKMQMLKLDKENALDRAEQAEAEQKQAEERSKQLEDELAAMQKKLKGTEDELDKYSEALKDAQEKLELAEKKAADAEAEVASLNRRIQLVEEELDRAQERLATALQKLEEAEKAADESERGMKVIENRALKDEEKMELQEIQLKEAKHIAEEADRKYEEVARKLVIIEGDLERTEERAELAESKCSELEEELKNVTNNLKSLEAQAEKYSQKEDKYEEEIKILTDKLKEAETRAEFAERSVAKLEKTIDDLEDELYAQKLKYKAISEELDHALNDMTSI

For orientation: IC50 means the concentration needed to halve the response being measured. A high value points to weaker potency. Compound `O=C(Nc1ccc(F)c(F)c1)c1cnc2ccc(N3CCC[C@@H]3c3cccc(F)c3)nn12` [TRACK] had an IC50 of 29.4 ± 9.4 nM.
